Assay results as given in ChEMBL document CHEMBL1201862, “PubChem BioAssay data set” (2004).
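Step 1: Grow cells in 96-well plates. Step 2: Expose to compound for 48 hours at 5 concentrations. Step 3: Interpolate endpoints linearly; if unreached, use highest concentration. Here, GI50 denotes the concentration required for 50% inhibition of growth.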 Activity calls are given as the source filed them. Rule as the data show it: active = GI50 up to about 1.1 µM and inactive = higher.

Legend:
Assay in all cases: inhibition of tumour cell growth, NCI panel, 48 h
[1] = system: UO-31
[2] = system: HT-29
[3] = system: OVCAR-4
[4] = system: SN12C
[5] = system: HOP-62
[6] = system: NCI-H226
[7] = system: SNB-19
[8] = system: Malme-3M
[9] = system: COLO 205
[10] = system: PC-3
[11] = system: K562
[12] = system: NCI-H23
[13] = system: RPMI-8226
[14] = system: SK-MEL-28
[15] = system: 786-0
[16] = system: MDA-MB-435
[17] = system: RXF 393
[18] = system: SR
[19] = system: M14
[20] = system: HCT-15

Row | SMILES | GI50 [1] | GI50 [2] | GI50 [3] | GI50 [4] | GI50 [5] | GI50 [6] | GI50 [7] | GI50 [8] | GI50 [9] | GI50 [10] | GI50 [11] | GI50 [12] | GI50 [13] | GI50 [14] | GI50 [15] | GI50 [16] | GI50 [17] | GI50 [18] | GI50 [19] | GI50 [20]
1 | COc1ccc(-c2nc(O)c3ccccc3n2)cc1 | > 100 µM (inactive) | > 100 µM (inactive) | 26.9 µM (inactive) | 61.2 µM (inactive) | > 100 µM (inactive) | 38.6 µM (inactive) | > 100 µM (inactive) | > 100 µM (inactive) | > 100 µM (inactive) | > 100 µM (inactive) | > 100 µM (inactive) | 87.5 µM (inactive) | > 100 µM (inactive) | 43.6 µM (inactive) | 48.3 µM (inactive) | > 100 µM (inactive) | > 100 µM (inactive) | 45.4 µM (inactive) | > 100 µM (inactive) | 43.1 µM
2 | O=C1OC[C@H]2[C@@H]1[C@H]1O[C@@H]2C2=C(CCC2)C1=O | > 100 µM (inactive) | > 100 µM (inactive) | > 100 µM (inactive) | > 100 µM (inactive) | > 100 µM (inactive) | > 100 µM (inactive) | > 100 µM (inactive) | > 100 µM (inactive) | > 100 µM (inactive) | > 100 µM (inactive) | > 100 µM (inactive) | > 100 µM (inactive) | > 100 µM (inactive) | > 100 µM (inactive) | > 100 µM (inactive) | > 100 µM (inactive) | > 100 µM (inactive) | > 100 µM (inactive) | > 100 µM (inactive) | > 100 µM
3 | CCN1C[C@]2(C)CC[C@H](OC)C34C5C[C@@H]6[C@@H](OC)C[C@@](OC)(C5[C@H]6OCc5ccccc5)C(C13)[C@H](OC(C)=O)[C@@H]42 (stereo not given in full) | > 100 µM (inactive) | > 100 µM (inactive) | > 100 µM (inactive) | > 100 µM (inactive) | > 100 µM (inactive) | > 100 µM (inactive) | > 100 µM (inactive) | > 100 µM (inactive) | 75.2 µM (inactive) | 82.8 µM (inactive) | > 100 µM (inactive) | > 100 µM (inactive) | > 100 µM (inactive) | > 100 µM (inactive) | > 100 µM (inactive) | > 100 µM (inactive) | > 100 µM (inactive) | > 100 µM (inactive) | 97.1 µM (inactive) | > 100 µM
4 | Cn1ncc(NCCn2cnc3c2c(=O)n(C)c(=O)n3C)c(Cl)c1=O | > 100 µM (inactive) | > 100 µM (inactive) | > 100 µM (inactive) | > 100 µM (inactive) | > 100 µM (inactive) | > 100 µM (inactive) | > 100 µM (inactive) | > 100 µM (inactive) | > 100 µM (inactive) | > 100 µM (inactive) | > 100 µM (inactive) | > 100 µM (inactive) | > 100 µM (inactive) | > 100 µM (inactive) | > 100 µM (inactive) | > 100 µM (inactive) | > 100 µM (inactive) | > 100 µM (inactive) | > 100 µM (inactive) | > 100 µM
5 | CC1=C(CCC(C)CO)O[C@H]2C[C@H]3[C@@H]4CC[C@H]5C[C@@H](O)CC[C@]5(C)[C@H]4CC(=O)[C@]3(C)[C@@H]12 (stereo not given in full) | 12.4 µM (inactive) | 13.7 µM (inactive) | 25.2 µM (inactive) | 18.9 µM (inactive) | 9.27 µM (inactive) | 27.2 µM (inactive) | 22.3 µM (inactive) | 19.1 µM (inactive) | 8.97 µM (inactive) | 5.08 µM (inactive) | 10.4 µM (inactive) | 14.9 µM (inactive) | 2.4 µM (inactive) | 22.1 µM (inactive) | 20.7 µM (inactive) | 18.9 µM (inactive) | 29.1 µM (inactive) | 13.4 µM (inactive) | 10.6 µM (inactive) | 17.1 µM
6 | O=C1NC(=O)C2=C1CCC2O (stereo not given) | > 100 µM (inactive) | > 100 µM (inactive) | > 100 µM (inactive) | > 100 µM (inactive) | > 100 µM (inactive) | > 100 µM (inactive) | > 100 µM (inactive) | > 100 µM (inactive) | > 100 µM (inactive) | > 100 µM (inactive) | > 100 µM (inactive) | > 100 µM (inactive) | > 100 µM (inactive) | > 100 µM (inactive) | > 100 µM (inactive) | > 100 µM (inactive) | > 100 µM (inactive) | > 100 µM (inactive) | > 100 µM (inactive) | > 100 µM
